Patent publication US20100120690A1, “Polypeptides Having Antimicrobial Activity and Polynucleotides Encoding Same” (Novozymes Adenium Biotech A/S, priority 2005, published 2010)

Test system: Staphylococcus aureus, MRSA ST80 (2003)
Experiment: MIC, NCCLS/CLSI guidelines (Example 5), strain E
Type: cell-based
Conditions: relative to wildtype Plectasin; average of two independent experiments
Description: (§1) Plectasin wild-type (SEQ ID NO: 1) and several variants of Plectasin were expressed and purified. The Minimal Inhibitory Concentration (MIC) was determined to test for their antimicrobial activity following the NCCLS guidelines from CLSI (Clinical and Laboratory Standards Institute; formerly known as National Committee for Clinical and Laboratory Standards).
(§2) The peptides were tested against the following strains: • A: Staphylococcus aureus, ATCC 29213; • B: Staphylococcus aureus, ATCC 25923; • C: Staphylococcus aureus, ATCC 29737; • D: Staphylococcus aureus, MRSA ST5 (2001), multi-resistant clinical human isolate from Statens Serum Institut, Denmark; • E: Staphylococcus aureus, MRSA ST80 (2003), multi-resistant clinical human isolate from Statens Serum Institut, Denmark.
(§3) All MIC values represent an average of two independent experiments; and all results in Table 5 are expressed relative to wildtype Plectasin:
(§4) 0: >100% of Plectasin wildtype MIC; 1: 80-100% of Plectasin wildtype MIC; 2: 50-80% of Plectasin wildtype MIC; 3: <50% of Plectasin wildtype MIC.

| Substance | Relative MIC, strain E |
| --- | --- |
| D9A + K38R: variant of Plectasin (SEQ ID NO: 1) (GFGCNGPWAEDDMQCHNHCKSIKGYKGGYCAKGGFVCRCY) | 3 (<50% of Plectasin wildtype MIC) |
| D9A + Q14H + K26R + V36L: variant of Plectasin (SEQ ID NO: 1) (GFGCNGPWAEDDMHCHNHCKSIKGYRGGYCAKGGFLCKCY) | 3 (<50% of Plectasin wildtype MIC) |
| D9N + M13L + Q14R: variant of Plectasin (SEQ ID NO: 1) (GFGCNGPWNEDDLRCHNHCKSIKGYKGGYCAKGGFVCKCY) | 3 (<50% of Plectasin wildtype MIC) |
| D9N + Q14H + K38R: variant of Plectasin (SEQ ID NO: 1) (GFGCNGPWNEDDMHCHNHCKSIKGYKGGYCAKGGFVCRCY) | 2 (50-80% of Plectasin wildtype MIC) |
| D9S + Q14L: variant of Plectasin (SEQ ID NO: 1) (GFGCNGPWSEDDMLCHNHCKSIKGYKGGYCAKGGFVCKCY) | 3 (<50% of Plectasin wildtype MIC) |

Test system: Staphylococcus aureus, MRSA ST5 (2001)
Experiment: MIC, NCCLS/CLSI guidelines (Example 5), strain D
Type: cell-based
Conditions: relative to wildtype Plectasin; average of two independent experiments
Description: as §1, §2, §3, §4

| Substance | Relative MIC, strain D |
| --- | --- |
| D9A + K38R: variant of Plectasin (SEQ ID NO: 1) (GFGCNGPWAEDDMQCHNHCKSIKGYKGGYCAKGGFVCRCY) | 3 (<50% of Plectasin wildtype MIC) |
| D9A + Q14H + K26R + V36L: variant of Plectasin (SEQ ID NO: 1) (GFGCNGPWAEDDMHCHNHCKSIKGYRGGYCAKGGFLCKCY) | 3 (<50% of Plectasin wildtype MIC) |
| D9N + M13L + Q14R: variant of Plectasin (SEQ ID NO: 1) (GFGCNGPWNEDDLRCHNHCKSIKGYKGGYCAKGGFVCKCY) | 3 (<50% of Plectasin wildtype MIC) |
| D9N + Q14H + K38R: variant of Plectasin (SEQ ID NO: 1) (GFGCNGPWNEDDMHCHNHCKSIKGYKGGYCAKGGFVCRCY) | 3 (<50% of Plectasin wildtype MIC) |
| D9S + Q14L: variant of Plectasin (SEQ ID NO: 1) (GFGCNGPWSEDDMLCHNHCKSIKGYKGGYCAKGGFVCKCY) | 3 (<50% of Plectasin wildtype MIC) |

Test system: Staphylococcus aureus, ATCC 25923
Experiment: MIC, NCCLS/CLSI guidelines (Example 5), strain B
Type: cell-based
Conditions: relative to wildtype Plectasin; average of two independent experiments
Description: as §1, §2, §3, §4

| Substance | Relative MIC, strain B |
| --- | --- |
| D9A + K38R: variant of Plectasin (SEQ ID NO: 1) (GFGCNGPWAEDDMQCHNHCKSIKGYKGGYCAKGGFVCRCY) | 3 (<50% of Plectasin wildtype MIC) |
| D9A + Q14H + K26R + V36L: variant of Plectasin (SEQ ID NO: 1) (GFGCNGPWAEDDMHCHNHCKSIKGYRGGYCAKGGFLCKCY) | 3 (<50% of Plectasin wildtype MIC) |
| D9N + M13L + Q14R: variant of Plectasin (SEQ ID NO: 1) (GFGCNGPWNEDDLRCHNHCKSIKGYKGGYCAKGGFVCKCY) | 3 (<50% of Plectasin wildtype MIC) |
| D9N + Q14H + K38R: variant of Plectasin (SEQ ID NO: 1) (GFGCNGPWNEDDMHCHNHCKSIKGYKGGYCAKGGFVCRCY) | 3 (<50% of Plectasin wildtype MIC) |

Test system: Staphylococcus aureus, ATCC 29737
Experiment: MIC, NCCLS/CLSI guidelines (Example 5), strain C
Type: cell-based
Conditions: relative to wildtype Plectasin; average of two independent experiments
Description: as §1, §2, §3, §4

| Substance | Relative MIC, strain C |
| --- | --- |
| D9A + K38R: variant of Plectasin (SEQ ID NO: 1) (GFGCNGPWAEDDMQCHNHCKSIKGYKGGYCAKGGFVCRCY) | 3 (<50% of Plectasin wildtype MIC) |
| D9A + Q14H + K26R + V36L: variant of Plectasin (SEQ ID NO: 1) (GFGCNGPWAEDDMHCHNHCKSIKGYRGGYCAKGGFLCKCY) | 3 (<50% of Plectasin wildtype MIC) |
| D9N + M13L + Q14R: variant of Plectasin (SEQ ID NO: 1) (GFGCNGPWNEDDLRCHNHCKSIKGYKGGYCAKGGFVCKCY) | 3 (<50% of Plectasin wildtype MIC) |
| D9N + Q14H + K38R: variant of Plectasin (SEQ ID NO: 1) (GFGCNGPWNEDDMHCHNHCKSIKGYKGGYCAKGGFVCRCY) | 3 (<50% of Plectasin wildtype MIC) |
| D9S + Q14L: variant of Plectasin (SEQ ID NO: 1) (GFGCNGPWSEDDMLCHNHCKSIKGYKGGYCAKGGFVCKCY) | 3 (<50% of Plectasin wildtype MIC) |

Test system: panel of 6 different strains of Staphylococcus aureus
Experiment: Average MIC, NCCLS/CLSI guidelines using caMHB (Example 6)
Type: cell-based
Conditions: average over 6 S. aureus strains, duplicate; MIC above 32 counted as 64; read after 18-24 hours at 37° C.
Description: A large number of antimicrobial peptides of the invention were tested against a panel of 6 different strains of Staphylococcus aureus listed below:
Staphylococcus aureus, ATCC29213, MSSA, NCCLS reference strain; Staphylococcus aureus, ATCC25923, MSSA, NCCLS reference strain; Staphylococcus aureus, ATCC29737, MSSA; Staphylococcus aureus, E33235, MSSA; Staphylococcus aureus, 698-01, MRSA ST5, Str, Kan, Oxa; Staphylococcus aureus, 566-03, MRSA ST80, Oxa, Tet, Fus, Kan.
The staphylococci were exposed to the following peptide concentrations: 32; 16; 8; 4; 2; 1; 0.5; 0.25; 0.13; […]; and 0.03 microgram/mL. All peptides were purified, HPLC quantified and the concentrated peptides (>160 micrograms/mL) were diluted to 160 micrograms/mL in peptide dilution buffer (0.1% BSA, 0.01% Acetic Acid).
The MIC determination was done essentially as described by NCCLS/CLSI guidelines using caMHB. The MICs were read after 18-24 hours of 37° C. incubations and recorded along with the CFU in the table below.
A total number of 95 antimicrobial peptides of the invention were evaluated in duplicate against the 6 bacterial strains described above.
In the majority of the double determinations (93%), the MIC varied <2 fold. An average MIC is tabulated below. If the MIC was above 32 micrograms/mL, a value of 64 was used to calculate the average.

| Substance | Average MIC |
| --- | --- |
| D9A + K38R: variant of Plectasin (SEQ ID NO: 1) (GFGCNGPWAEDDMQCHNHCKSIKGYKGGYCAKGGFVCRCY) | 4 micrograms/mL |
| D9A + Q14H + K26R + V36L: variant of Plectasin (SEQ ID NO: 1) (GFGCNGPWAEDDMHCHNHCKSIKGYRGGYCAKGGFLCKCY) | 1 micrograms/mL |
| D9N + M13L + Q14R: variant of Plectasin (SEQ ID NO: 1) (GFGCNGPWNEDDLRCHNHCKSIKGYKGGYCAKGGFVCKCY) | 1 micrograms/mL |
| D9N + Q14H + K38R: variant of Plectasin (SEQ ID NO: 1) (GFGCNGPWNEDDMHCHNHCKSIKGYKGGYCAKGGFVCRCY) | 4 micrograms/mL |
| D9S + Q14L: variant of Plectasin (SEQ ID NO: 1) (GFGCNGPWSEDDMLCHNHCKSIKGYKGGYCAKGGFVCKCY) | 3 micrograms/mL |

Test system: Staphylococcus aureus, ATCC 29213
Experiment: MIC, NCCLS/CLSI guidelines (Example 5), strain A
Type: cell-based
Conditions: relative to wildtype Plectasin; average of two independent experiments
Description: as §1, §2, §3, §4

| Substance | Relative MIC, strain A |
| --- | --- |
| D9A + K38R: variant of Plectasin (SEQ ID NO: 1) (GFGCNGPWAEDDMQCHNHCKSIKGYKGGYCAKGGFVCRCY) | 3 (<50% of Plectasin wildtype MIC) |
| D9A + Q14H + K26R + V36L: variant of Plectasin (SEQ ID NO: 1) (GFGCNGPWAEDDMHCHNHCKSIKGYRGGYCAKGGFLCKCY) | 3 (<50% of Plectasin wildtype MIC) |
| D9N + M13L + Q14R: variant of Plectasin (SEQ ID NO: 1) (GFGCNGPWNEDDLRCHNHCKSIKGYKGGYCAKGGFVCKCY) | 3 (<50% of Plectasin wildtype MIC) |
| D9N + Q14H + K38R: variant of Plectasin (SEQ ID NO: 1) (GFGCNGPWNEDDMHCHNHCKSIKGYKGGYCAKGGFVCRCY) | 3 (<50% of Plectasin wildtype MIC) |
| D9S + Q14L: variant of Plectasin (SEQ ID NO: 1) (GFGCNGPWSEDDMLCHNHCKSIKGYKGGYCAKGGFVCKCY) | 3 (<50% of Plectasin wildtype MIC) |
